These results are taken from ChEMBL document CHEMBL1137622, “8-Hydroxy-3,4-dihydropyrrolo[1,2-a]pyrazine-1(2H)-one HIV-1 integrase inhibitors” (Bioorg Med Chem Lett, 2007).

The source made the active and inactive calls. The rule behind the calls is not given here.

A short description of data set [1]: physchem.
Description: Dissociation constant, pKa of the compound
In data set [2] the test system is Human immunodeficiency virus 1. Briefly: Antiviral activity against HIV1 3B infected in human MT4 cells after 24 hrs by p24 ELISA. In kind it is functional. Particulars: Human immunodeficiency virus 1, 3B, MT4, 24 h; read-out: CIC95.
The target in data set [3] is Human immunodeficiency virus type 1 integrase (Human immunodeficiency virus 1, UniProt Q7ZJM1). The data set is described as follows: Inhibition of recombinant HIV1 integrase strand transfer activity.
Sequence of Human immunodeficiency virus type 1 integrase (Q7ZJM1 whole entry): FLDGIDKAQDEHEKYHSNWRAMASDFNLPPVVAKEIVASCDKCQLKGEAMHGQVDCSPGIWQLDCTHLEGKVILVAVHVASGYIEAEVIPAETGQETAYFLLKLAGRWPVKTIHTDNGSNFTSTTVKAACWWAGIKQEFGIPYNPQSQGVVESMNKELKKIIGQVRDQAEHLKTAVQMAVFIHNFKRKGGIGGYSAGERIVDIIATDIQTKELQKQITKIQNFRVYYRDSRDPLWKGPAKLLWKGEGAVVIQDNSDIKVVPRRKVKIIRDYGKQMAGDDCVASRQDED
In data set [4] the test system is Human immunodeficiency virus 1. The data set is described as follows: Antiviral activity against HIV1 at concentrations upto 20 uM. The format is functional, organism-based.
Data set [5] has as its system MT4. Briefly: Cytotoxicity against human MT4 cells at concentrations up to 20 uM. In kind it is cell-based.
The nature of data set [6]: Clearance in rat at 2 mg/kg, iv. The conditions noted are these: in vivo. Further details: dose 2 mg/kg, route intravenous. The format is ADME, organism-based.
A short description of data set [7]: Half life in rat at 2 mg/kg, iv. The format is ADME, organism-based. On the set-up: dose 2 mg/kg, route intravenous. Particulars: in vivo.

In turn, `O=C(O)c1cn2c(c1O)C(=O)N(Cc1ccccc1)CC2` yielded a pKa in data set [1] of 3.8. The IC95 in data set [2] was above 20000 nM. Besides, in data set [3], the IC50 was determined as 80 nM. In addition, the outcome in data set [4] was inactive.
`CNC(=O)c1cn2c(c1O)C(=O)N(Cc1ccc(Cl)c(Cl)c1)CC2`: the IC95 in data set [2] stood at 1250 nM. Besides, the IC50 in data set [3] was 40 nM.
Turning to `CCOC(=O)c1cn2c(c1O)C(=O)N(Cc1cccc(Cl)c1)CC2`, in data set [5], the Activity entry is “Non-toxic”. Moreover, the IC95 in data set [2] is 1250 nM. Moreover, in data set [3], the IC50 was 30 nM.
Consider `CN1CCc2c(c(O)c3n2CCN(Cc2ccc(F)cc2)C3=O)C1=O`, for which the IC95 in data set [2] was 390 nM. Besides, in data set [3], the IC50 is below 10 nM.
Regarding `CNC(=O)c1cn2c(c1O)C(=O)N(Cc1ccc(Cl)cc1)CC2`, the IC95 in data set [2] was 2500 nM. Besides, in data set [3], the IC50 was 60 nM.
Turning to `CNC(=O)c1cn2c(c1O)C(=O)N(Cc1ccc(F)cc1)CC2`, the IC95 in data set [2] came out at 10000 nM. Besides, the IC50 in data set [3] was found to be 80 nM.
As for `CCOC(=O)c1cn2c(c1O)C(=O)N(Cc1ccc(F)cc1)CCC2`, the IC50 in data set [3] is above 5000 nM.
For the molecule `CCOC(=O)c1cn2c(c1O)C(=O)N(Cc1cccc(F)c1)CC2`, the Activity result in data set [5] is given as “Non-toxic”. Besides, in data set [2], the IC95 came out at 9380 nM. Also, the IC50 in data set [3] is 110 nM.
`O=C(O)c1cn2c(c1O)C(=O)N(Cc1cccc(Cl)c1)CC2`: the pKa in data set [1] turned out to be 3.8. The IC95 in data set [2] was above 20000 nM. Besides, the IC50 in data set [3] worked out at 10 nM. Further, the outcome in data set [4] was inactive.
Turning to `CCOC(=O)c1cn2c(c1O)C(=O)N(Cc1ccc(F)c(Cl)c1)CC2`, the Activity entry in data set [5] was “Non-toxic”. Further, in data set [2], the IC95 was determined as 940 nM. Also, the IC50 in data set [3] came to 20 nM.
For `CCOC(=O)c1cn2c(c1O)C(=O)N(Cc1ccc(Cl)cc1)CC2`, in that order: “Non-toxic”, 1020 nM and 40 nM.
For the molecule `CCOC(=O)c1cn2c(c1O)C(=O)N(Cc1ccc(F)cc1)CC2`, the Activity result in data set [5] is on record as “Non-toxic”. Further, the IC95 in data set [2] was 3230 nM. Further, the IC50 in data set [3] turned out to be 40 nM.
The corresponding values for `CCOC(=O)c1cn2c(c1O)C(=O)N(Cc1ccccc1)CC2` are “Non-toxic”, 20000 nM and 220 nM.
Consider `CCOC(=O)c1cn2c(c1O)C(=O)N(Cc1ccc(Cl)c(Cl)c1)CC2`, for which the clearance in data set [6] stood at 30 mL/min/kg. Moreover, the half-life in data set [7] was 30 min. In data set [5], the Activity result is given as “Non-toxic”. Also, the IC95 in data set [2] stood at 310 nM. Also, the IC50 in data set [3] turned out to be 10 nM.
Turning to `O=C1c2c(O)c3n(c2CCN1Cc1ccc(F)cc1)CCN(Cc1ccc(F)cc1)C3=O`, the IC95 in data set [2] amounted to 70 nM. Further, the IC50 in data set [3] was below 10 nM.
Consider `CN1CCn2c3c(c(O)c2C1=O)C(=O)N(Cc1ccc(F)cc1)CC3`, for which, in data set [2], the IC95 was 160 nM. Further, the IC50 in data set [3] was below 10 nM.
